Measured values as given in PubChem BioAssay AID2060895 (Molecular Pharmacology Branch, DTP, NCI, 2025).

System: PDC 899932-113-R3-J6 complex spheroid viability
Assay: Anticancer human tumor 899932-113-R3-J6-PDC patient-derived melanoma cell line growth inhibition [RAS]
Conditions: for IC50: curve of first compound; for viability, T/C: stronger effect = lower value
In short: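 Multi-cell-type spheroids: tumor cells plus HUVEC endothelial cells and mesenchymal stem cells. RAS-pathway inhibitors were combined with targeted agents, each dosed in half-log steps down from clinical Cmax, or from 10 microM when Cmax was unknown.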

[1] = second compound 0.000949 µM, first compound 0.00316 µM
[2] = second compound 0.000949 µM, first compound 0.01 µM
[3] = second compound 0.000949 µM, first compound 0.0316 µM
[4] = second compound 0.000949 µM, first compound 0.1 µM
[5] = second compound 0.000949 µM, first compound 0.316 µM
[6] = second compound 0.000949 µM, first compound 1 µM
[7] = second compound 0.003 µM, first compound 0.00316 µM
[8] = second compound 0.003 µM, first compound 0.01 µM
[9] = second compound 0.003 µM, first compound 0.0316 µM
[10] = second compound 0.003 µM, first compound 0.1 µM
[11] = second compound 0.003 µM, first compound 0.316 µM
[12] = second compound 0.003 µM, first compound 1 µM
[13] = second compound 0.00949 µM, first compound 0.00316 µM
[14] = second compound 0.00949 µM, first compound 0.01 µM
[15] = second compound 0.00949 µM, first compound 0.0316 µM
[16] = second compound 0.00949 µM, first compound 0.1 µM
[17] = second compound 0.00949 µM, first compound 0.316 µM
[18] = second compound 0.00949 µM, first compound 1 µM
[19] = second compound 0.03 µM, first compound 0.00316 µM
[20] = second compound 0.03 µM, first compound 0.01 µM
[21] = second compound 0.03 µM, first compound 0.0316 µM
[22] = second compound 0.03 µM, first compound 0.1 µM
[23] = second compound 0.03 µM, first compound 0.316 µM
[24] = second compound 0.03 µM, first compound 1 µM
[25] = second compound 0.0949 µM, first compound 0.00316 µM
[26] = second compound 0.0949 µM, first compound 0.01 µM
[27] = second compound 0.0949 µM, first compound 0.0316 µM
[28] = second compound 0.0949 µM, first compound 0.1 µM
[29] = second compound 0.0949 µM, first compound 0.316 µM
[30] = second compound 0.0949 µM, first compound 1 µM
[31] = second compound 0.3 µM, first compound 0.00316 µM
[32] = second compound 0.3 µM, first compound 0.01 µM
[33] = second compound 0.3 µM, first compound 0.0316 µM
[34] = second compound 0.3 µM, first compound 0.1 µM
[35] = second compound 0.3 µM, first compound 0.316 µM
[36] = second compound 0.3 µM, first compound 1 µM
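Wherever viability, T/C is given: spheroids exposed to agents for seven days before readout; 100% = DMSO vehicle control wells.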

C=CC(=O)Nc1cc(Nc2nccc(-c3cn(C)c4ccccc34)n2)c(OC)cc1N(C)CCN(C)C + CCn1c(-c2cc(N3CCN(C)CC3)cnc2C(C)OC)c2c3cc(ccc31)-c1csc(n1)CC(NC(=O)C1CC1C)C(=O)N1CCCC(N1)C(=O)OCC(C)(C)C2
IC50 (second compound 0.000949 µM): > 1000 nM | IC50 (second compound 0.003 µM): < 3.16 nM | IC50 (second compound 0.00949 µM): < 3.16 nM | IC50 (second compound 0.03 µM): < 3.16 nM | IC50 (second compound 0.0949 µM): < 3.16 nM | IC50 (second compound 0.3 µM): < 3.16 nM | viability, T/C [1]: 69.1% | viability, T/C [2]: 69.2% | viability, T/C [3]: 67% | viability, T/C [4]: 79.7% | viability, T/C [5]: 76.7% | viability, T/C [6]: 64.3% | viability, T/C [7]: 32.5% | viability, T/C [8]: 28.4% | viability, T/C [9]: 28.7% | viability, T/C [10]: 33.8% | viability, T/C [11]: 31.5% | viability, T/C [12]: 16.9% | viability, T/C [13]: 4.3% | viability, T/C [14]: 3.34% | viability, T/C [15]: 3.46% | viability, T/C [16]: 3.41% | viability, T/C [17]: 2.9% | viability, T/C [18]: 2.5% | viability, T/C [19]: 2.61% | viability, T/C [20]: 2.72% | viability, T/C [21]: 2.62% | viability, T/C [22]: 2.55% | viability, T/C [23]: 2.41% | viability, T/C [24]: 1.43% | viability, T/C [25]: 2.26% | viability, T/C [26]: 2.18% | viability, T/C [27]: 2.56% | viability, T/C [28]: 2.02% | viability, T/C [29]: 1.87% | viability, T/C [30]: 1.11% | viability, T/C [31]: 2.04% | viability, T/C [32]: 2.23% | viability, T/C [33]: 1.88% | viability, T/C [34]: 1.96% | viability, T/C [35]: 1.49% | viability, T/C [36]: 1.11%

C=CC(=O)N1CCN(c2nc(OCC3CCCN3C)nc3c(F)c(-c4nc(N)cc(C)c4C(F)(F)F)c(Cl)cc23)C(C)C1 (stereo unspecified) + CCn1c(-c2cc(N3CCN(C)CC3)cnc2C(C)OC)c2c3cc(ccc31)-c1csc(n1)CC(NC(=O)C1CC1C)C(=O)N1CCCC(N1)C(=O)OCC(C)(C)C2
IC50 (second compound 0.000949 µM): > 1000 nM | IC50 (second compound 0.003 µM): < 3.16 nM | IC50 (second compound 0.00949 µM): < 3.16 nM | IC50 (second compound 0.03 µM): < 3.16 nM | IC50 (second compound 0.0949 µM): < 3.16 nM | IC50 (second compound 0.3 µM): < 3.16 nM | viability, T/C [1]: 73.2% | viability, T/C [2]: 71.3% | viability, T/C [3]: 75.9% | viability, T/C [4]: 76.8% | viability, T/C [5]: 74% | viability, T/C [6]: 78.2% | viability, T/C [7]: 39.8% | viability, T/C [8]: 35.6% | viability, T/C [9]: 36.5% | viability, T/C [10]: 37.7% | viability, T/C [11]: 42.3% | viability, T/C [12]: 34.5% | viability, T/C [13]: 3.88% | viability, T/C [14]: 4.28% | viability, T/C [15]: 6.59% | viability, T/C [16]: 5.83% | viability, T/C [17]: 4.76% | viability, T/C [18]: 5.5% | viability, T/C [19]: 2.75% | viability, T/C [20]: 2.91% | viability, T/C [21]: 4.47% | viability, T/C [22]: 2.82% | viability, T/C [23]: 2.96% | viability, T/C [24]: 2.4% | viability, T/C [25]: 2.13% | viability, T/C [26]: 2.76% | viability, T/C [27]: 2.86% | viability, T/C [28]: 1.94% | viability, T/C [29]: 2.58% | viability, T/C [30]: 2.69% | viability, T/C [31]: 2.09% | viability, T/C [32]: 2.1% | viability, T/C [33]: 3.32% | viability, T/C [34]: 3.11% | viability, T/C [35]: 2.88% | viability, T/C [36]: 2.36%

CC(=O)OC12COC1CC(O)C1(C)C(=O)C(O)C3=C(C)C(OC(=O)C(O)C(NC(=O)OC(C)(C)C)c4ccccc4)CC(O)(C(OC(=O)c4ccccc4)C21)C3(C)C (stereo unspecified) + C#Cc1c(F)ccc2cc(O)cc(-c3ncc4c(N5CC6CCC(C5)N6)nc(OCC56CCCN5CC(F)C6)nc4c3F)c12
IC50 (second compound 0.0316 µM): < 31.6 nM | IC50 (second compound 0.1 µM): < 31.6 nM | IC50 (second compound 0.316 µM): < 31.6 nM | IC50 (second compound 1 µM): < 31.6 nM | IC50 (second compound 3.16 µM): < 31.6 nM | IC50 (second compound 10 µM): < 31.6 nM | viability, T/C (second compound 0.0316 µM, first compound 0.0316 µM): 33.1% | viability, T/C (second compound 0.0316 µM, first compound 0.1 µM): 32.1% | viability, T/C (second compound 0.0316 µM, first compound 0.316 µM): 39.9% | viability, T/C (second compound 0.0316 µM, first compound 1 µM): 48.3% | viability, T/C (second compound 0.0316 µM, first compound 3.16 µM): 67.1% | viability, T/C (second compound 0.0316 µM, first compound 10 µM): 67.7% | viability, T/C (second compound 0.1 µM, first compound 0.0316 µM): 31.8% | viability, T/C (second compound 0.1 µM, first compound 0.1 µM): 31.7% | viability, T/C (second compound 0.1 µM, first compound 0.316 µM): 36.1% | viability, T/C (second compound 0.1 µM, first compound 1 µM): 49.5% | viability, T/C (second compound 0.1 µM, first compound 3.16 µM): 74.5% | viability, T/C (second compound 0.1 µM, first compound 10 µM): 81.8% | viability, T/C (second compound 0.316 µM, first compound 0.0316 µM): 32.3% | viability, T/C (second compound 0.316 µM, first compound 0.1 µM): 30.5% | viability, T/C (second compound 0.316 µM, first compound 0.316 µM): 38.8% | viability, T/C (second compound 0.316 µM, first compound 1 µM): 53.4% | viability, T/C (second compound 0.316 µM, first compound 3.16 µM): 67.4% | viability, T/C (second compound 0.316 µM, first compound 10 µM): 82.8% | viability, T/C (second compound 1 µM, first compound 0.0316 µM): 30.7% | viability, T/C (second compound 1 µM, first compound 0.1 µM): 35% | viability, T/C (second compound 1 µM, first compound 0.316 µM): 41.3% | viability, T/C (second compound 1 µM, first compound 1 µM): 45.5% | viability, T/C (second compound 1 µM, first compound 3.16 µM): 75.1% | viability, T/C (second compound 1 µM, first compound 10 µM): 78.9% | viability, T/C (second compound 3.16 µM, first compound 0.0316 µM): 32.1% | viability, T/C (second compound 3.16 µM, first compound 0.1 µM): 34.4% | viability, T/C (second compound 3.16 µM, first compound 0.316 µM): 37.5% | viability, T/C (second compound 3.16 µM, first compound 1 µM): 49.6% | viability, T/C (second compound 3.16 µM, first compound 3.16 µM): 63.2% | viability, T/C (second compound 3.16 µM, first compound 10 µM): 73.9% | viability, T/C (second compound 10 µM, first compound 0.0316 µM): 35.3% | viability, T/C (second compound 10 µM, first compound 0.1 µM): 28.9% | viability, T/C (second compound 10 µM, first compound 0.316 µM): 36.4% | viability, T/C (second compound 10 µM, first compound 1 µM): 46.5% | viability, T/C (second compound 10 µM, first compound 3.16 µM): 66.4% | viability, T/C (second compound 10 µM, first compound 10 µM): 69.7%
